The values below come from patent US20110052494A1, “H-ANTIGEN BINDING POLYPEPTIDES AND METHODS OF USE” (priority 2008, published 2011).

For experiment [1], the system named is LLY (Streptococcus mitis SK597 lectinolysin, SEQ ID NO:1) on human donor 1 platelets. Kind of experiment: Block of the lectin-dependent enhancement of LLY pore formation (calcein release from platelets). In kind it is cell-based. The note with it: high responder platelets pretreated. The protocol:
Calcein release assay. PRP was diluted 1:100 with HEPES/saline assay buffer (2 mM CaCl2, 1 mM MgCl2, 150 mM NaCl, 10 mM HEPES, pH 7.5) and incubated with 2 μM calcein-acetoxy methyl ester (Molecular Probes, Eugene, Oreg.) for 10 minutes at room temperature as previously described (17). LLY (0.7-2.9 nM) was incubated with the calcein-loaded PRP for 10 minutes at room temperature. Samples were then diluted with HEPES/saline and analyzed on a FACSCalibur flow cytometer (Becton-Dickinson) using settings as described previously (17). Cells losing calcein fluorescence were quantified as a percentage of total platelets.
The EC50 values for LLY- and LLY^CDC-dependent calcein release were calculated using a nonlinear sigmoidal dose-response curve fit of the data (Prism Software).
We hypothesized that enhancement of LLY activity resulted from a glycan-dependent interaction of the lectin domain after monomer bound the cell surface. If correct then preincubating platelets with LLY^Lec should prevent interaction of the lectin domain of LLY with surface glycans and block the enhancement of LLY activity on the highly sensitive donor 1 platelets.

The target in experiment [2] is T1, LLY^Lec-Q190C (isolated fucolectin domain of Streptococcus mitis SK597 lectinolysin, SEQ ID NO:3, Q190C = position 154 of the domain) (Streptococcus sp. SK597, UniProt B3UZR3, Q190C).
T1 construct: Alexa-488 maleimide on Cys-190; E. coli
The experiment is described as follows: Glycan microarray binding, Alexa-488 labeled LLY^Lec. The note with it: for glycan microarray binding at the lowest LLY^Lec concentration: 5.6 nM LLY^Lec, determinants lacking the difucosylated structures. The protocol:
FIGS. 7A & 7B. LLY^Lec preferentially binds Le^y and Le^b glycans. Version 2.1 of the printed glycan microarray (Consortium for Functional Glycomics) was probed with Alexa-488 labeled LLY^Lec-Q190C at 560 nM, 56 nM and 5.6 nM. […] The average RFU (from 4-6 analysis with high and low values eliminated) for each bound glycan was determined as described in the Methods and the % CV (100×Standard Deviation÷Average) provides an indication of the precision of each measurement. […] AVG RFU is average relative fluorescence units; SP, spacer arm or linker between glycan and surface of the array; SP0, —CH2CH2NH2; and SP8, CH2CH2CH2NH2. Circles; galactose, squares; GalNac, triangles, fucose, squares; GlcNAc.
Chemical modification of LLY and its derivatives with sulfhydryl-specific fluorescent probes. Cysteine derivatives of LLY and LLY^Lec (i.e., the 162 amino acid fucolectin domain) were modified with Alexa Fluor 488 C5-maleimide (Invitrogen) via the sulfhydryl group as previously described (12). Modified protein stocks were adjusted to 10% (v/v) sterile glycerol, quick frozen in liquid nitrogen, and stored at −80° C. Proteins were labeled at an efficiency of 75% or greater.
Glycan microarray binding assay and scanning. Glycan microarrays were prepared as described previously (33,37) and obtained from the NIH/NIGMS-funded Consortium for Functional Glycomics (see http://www.functionalglycomics.org/static/index.shtml). Before assay, the slides were rehydrated for 5 minutes in TSM buffer (20 mM Tris-HCL, 150 mM sodium chloride (NaCl), 0.2 mM calcium chloride (CaCl2) and 0.2 mM magnesium chloride (MgCl2). Alexa-488-labeled LLY^Q190C and its derivatives were used in the binding assay (560-640 nM), and the bound proteins were detected directly via the fluorescent tag.
The slides were scanned with a Perkin Elmer ProScanarray MicroArray Scanner (Waltham, Mass.) using an excitation wavelength of 488 nm. ImaGene software (BioDiscovery, Inc., El Segundo, Calif.) was used to quantify fluorescence. The data are reported as average relative fluorescence units (RFU) from 4 of the 6 replicates (after removal of the highest and lowest values) for each glycan represented on the array. Versions 2.1 and 3.0 of the printed array were used in these studies and a complete list of glycans printed on these arrays can be found at the Functional Glycomics Gateway website:
Purified LLY^Lec-Q190C was fluorescently labeled with Alexa-488 and used to probe the glycan microarray. […] The AAA glycan binding site contains three key residues that make polar contacts with the fucose molecule. The Nε of His-52 contacts O-5 of the fucose ring whereas the guanidinium groups of Arg-79 and Arg-86 make contact with 3-OH and 4-OH ring hydroxyls of fucose (10). […]

On to `C[C@@H]1OC(O)[C@@H](O)[C@H](O)[C@@H]1O` (stereo partly drawn) [fucose, L-fucose], for which the “effect of pretreatment on the high/low responder EC50 difference” value in experiment [1] was “This difference was abolished”.
Fucα1-2Galβ [H-antigen]: the “glycan microarray binding at the lowest LLY^Lec concentration” value (shortened to “glycan microarray binding”) in experiment [2] is listed as “binds weakly or not at all”. In experiment [2] (printed glycan microarray, overall conclusion), the “glycan microarray ligand preference” value was “weaker ligand”.
In the case of “GaNAclα1-3[Fucα1-2]Galβ1-3/4R [blood group A]”, the “glycan microarray binding” value in experiment [2] is on record as “binds weakly or not at all”.
As to “Galα1-3[Fucα1-2]Galβ1-3/4R [blood group B]”, the “glycan microarray binding” value in experiment [2] was “binds weakly or not at all”.
